Assay [1] deals with MDA-MB-231 breast cancer cells. Particulars: 24 h. How it is done: (§1) 10,000 HT29 or SW480 human colon cancer cells, BxPC-3 human pancreatic cancer cells, and MCF7 and MDA-MB-231 breast cancer cells were obtained from American Type Culture Collection (ATTC), Manassas, Va., and were seeded in separate 96-well plates. After treatment with various concentrations (6.25 μM, 12.5 μM, 25 μM, 50 μM, 100 μM, or 200 μM) of test peptide for 24 h, cells were stained with MTT (3-(4,5-Dimethyl-2-thiazolyl)-2,5-diphenyl-2H-tetrazolium bromide, from Sigma-Aldrich) following the instructions of the manufacturer. Before dissolving MTT in SDS, the HT29 and SW480 cells were photographed using a digital camera connected with a phase-contrast microscope. (FIG. 2A1-8, and FIG. 2B1-6). Cells that are alive convert MTT into formazan in their active mitochondria and appear dark purple; dead cells are not stained by MTT and appear colorless.
(§2) The IC50 is the concentration of the test agent that inhibits cell growth by 50% at 24 hours of exposure. IC50s were determined using the MTT assay or using the cell Titer-Glo method and following the instructions of the manufacturer ([…]). […] (Sun, Y., and Rigas, B., (2008), Cancer Res., 68(20): 8269-8277).

Assay [2] relates to MCF7 breast cancer cells. Particulars: 24 h. How it is done: as §1, §2
Assay [3] deals with BxPC-3 human pancreatic cancer cells. Particulars: 24 h. On the procedure: as §1, §2
For assay [4], the system named is SW480 human colon cancer cells. The assay can be described thus: Flow cytometry forward/side scatter, proportion of dead cells, SW480. The assay is classed as cell-based. Conditions: 24 hrs, 0 μM to 200 μM. On the procedure:
SW480 human colon cancer cells and MCF7 breast cancer cells were grown following the instructions of American Type Culture Collection (ATCC, Monassas, Va.). The cells were treated with the test peptides (YJB01, YJB05, or YJB06) for 24 hrs at concentrations ranging from 0 μM, to 200 μM and subjected to flow cytometric analysis following standard protocols.
SW480 human colon cancer cells and MCF7 breast cancer cells were grown following the instructions of American Type Culture Collection (ATCC, Monassas, Va.). The cells were treated with the test peptides for 24 hrs at concentrations ranging from 0 μM, to 200 μM and subjected to flow cytometry analysis following standard protocols. […] The circumscribed (gated, outlined) areas in the figure indicate dead cells; dead cells generally have higher density (side scatter) and smaller size (forward scatter) than living cells.
(In general: In flow cytometry, cells or beads pass a laser one at a time.)

For assay [5], the system named is HT29, SW480, BxPC3, MCF7, and MDA-MB-231 cell lines. The assay is classed as cell-based, human. Conditions: 24 h. The source says:
(FIG. 2A1-8, and FIG. 2B1-6).

The record followed here is US8754047B2, “Peptide compositions and methods of use” (The Research Foundation for the State University of New York, priority 2008, dated 2014).

Positions of bridges follow the written chain, without caps; N, C: chain ends. Residues, ends and D or L forms follow the SMILES beside them. Some results are limits rather than exact numbers.

Take `CC[C@H](C)[C@H](NC(=O)[C@H](CCCCN)NC(=O)[C@@H](NC(=O)[C@H](CCC(N)=O)NC(=O)[C@H](CCCNC(=N)N)NC(=O)[C@@H]1CCCN1C(=O)[C@H](CCCNC(=N)N)NC(=O)[C@@H]1CSSC[C@H](NC(=O)[C@@H](N)[C@@H](C)O)C(=O)N2CCC[C@H]2C(=O)N[C@@H](Cc2ccc(O)cc2)C(=O)N1)[C@@H](C)CC)C(=O)N[C@@H](Cc1c[nH]c2ccccc12)C(=O)N[C@@H](Cc1ccccc1)C(=O)N[C@@H](CCC(N)=O)C(=O)N[C@@H](CC(N)=O)C(=O)N[C@@H](CCCNC(=N)N)C(=O)N[C@@H](CCCNC(=N)N)C(=O)N[C@@H](CCSC)C(=O)N[C@@H](CCCCN)C(=O)N[C@@H](Cc1c[nH]c2ccccc12)C(=O)N[C@@H](CCCCN)C(=O)N[C@@H](CCCCN)C(=O)O` [YJB03]: the IC50 in assay [1] turned out to be 309 µM; in assay [2] it was 21 µM; in assay [3], 153 µM.
On the same counts, the results for `CC[C@H](C)[C@H](NC(=O)[C@H](CCCCN)NC(=O)[C@@H](NC(=O)[C@H](CCC(N)=O)NC(=O)[C@H](CCCNC(=N)N)NC(=O)[C@@H]1CCCN1C(=O)[C@H](C)NC(=O)[C@@H]1CCCN1C(=O)[C@@H]1CSSC[C@H](NC(=O)[C@@H](N)C(C)C)C(=O)N2CCC[C@H]2C(=O)N[C@@H](C(C)C)C(=O)N1)[C@@H](C)CC)C(=O)N[C@@H](Cc1c[nH]c2ccccc12)C(=O)N[C@@H](Cc1ccccc1)C(=O)N[C@@H](CCC(N)=O)C(=O)N[C@@H](CC(N)=O)C(=O)N[C@@H](CCCNC(=N)N)C(=O)N[C@@H](CCCNC(=N)N)C(=O)N[C@@H](CCSC)C(=O)N[C@@H](CCCCN)C(=O)N[C@@H](Cc1c[nH]c2ccccc12)C(=O)N[C@@H](CCCCN)C(=O)N[C@@H](CCCCN)C(=O)O` [YJB04] (H-VCPVCPAPRQIKIWFQNRRMKWKK-OH; disulfide 2-5; N-terminus and C-terminus assumed) are 195 µM, 25 µM and 123 µM.
Turning to `C[C@H](N)C(=O)N[C@H](C(=O)N[C@@H](Cc1c[nH]c2ccccc12)C(=O)N[C@H]1CSSC[C@@H](C(=O)O)NC(=O)[C@@H]2CCCN2C(=O)CNC1=O)[C@@H](C)O` [YJB06] (H-ATWCGPC-OH; disulfide 4-7 (inferred); N-terminus and C-terminus assumed), in assay [4], the “cell killing effect, SW480” value was “failed to kill SW480 colon cancer cells”. The IC50 in assay [5] is over 2000 µM.

By IC50 is commonly meant the concentration needed to halve the response being measured. Read a high IC50 as weaker potency.
